Experimental data as given in patent US7427485B2, “Method for classification of anti-psychotic drugs” (The Rockefeller University, priority 2001, dated 2008).
Read-outs that look alike come from different tables or passages of the source.

Key:
DARPP-32 = details: chronic administration in rats; cited from earlier work
Ser133-CREB = experiment: In vivo phosphorylation of CREB in mouse striatum (immunoblot, phosphorylation state-specific antibodies); set-up: species or system mice; details: for Ser133-CREB phosphorylation level (mean): eticlopride 0.5, haloperidol 0.2, clozapine 5 mg/kg i.p., time 0 control = 100; for levels of phospho-CREB (in words): haloperidol 0.2 mg/kg, eticlopride 0.5 mg/kg
Protocol: (§1) Male C57/BL6 mice (groups of six) were administered intraperitoneal injections of one of three anti-psychotic compounds, haloperidol (a typical anti-psychotic), clozapine (an atypical anti-psychotic), or eticlopride (a selective dopamine D2 receptor antagonist). All animals were sacrificed by decapitation at 15, 30, or 60 minutes post-injection. After decapitation, the heads were immediately immersed in liquid nitrogen for 6 seconds to inactivate all protein activity. The brains were then dissected on an ice-cold surface and the striata removed and sonicated in 750 μl of 1% SDS, and then boiled for 10 minutes. Levels of phosphorylated DARPP-32, CREB, and ERK1 and ERK2 were then determined.
(§2) In order to determine levels of phosphoproteins in brain tissue, aliquots of the brain homogenate were loaded onto 10% polyacrylamide gels and the proteins separated by SDS/PAGE analysis, and then transferred to poly(vinylidene difluoride) membranes as described by Towbin and colleagues (Towbin, H. et al. 1979. Proc. Natl. Acad. Sci. USA 76:4350-4354). The effect of the drugs on the phosphorylation of DARPP-32 at two sites (Thr34 and Thr75), ERK1 at two sites (Thr202 and Tyr204), ERK2 at two sites (Thr185 and Tyr187), and CREB at one site (Ser133) was assessed using phosphorylation state-specific antibodies according to standard methods. Anti-phospho-ERK1 and anti-phospho-ERK2 antibodies were obtained from Cell Signaling Technology (Beverly, Mass.). Anti-phospho-CREB antibody was obtained from Upstate Biotechnology (Lake Placid, N.Y.). Anti-phospho-DARPP32 antibodies were used that had been produced according to the methods disclosed in U.S. patent application Ser. No. 09/419,379, by Bibb et al., entitled “Methods of Identifying Agents That Regulate Phosphorylation/Dephosphorylation in Dopamine Signaling,” filed Oct. 15, 1999, and Ser. No. 09/687,959, by Bibb et al., entitled “Methods of Identifying Agents That Regulate Phosphorylation/Dephosphorylation in Dopamine Signaling,” filed Oct. 13, 2000, (each of which is incorporated herein by reference in its entirety). These methods were used to produce phosphorylation state-specific antibodies having specificity for Thr34-phosphorylated and Thr75-phosphorylated DARPP-32.

Thr75-DARPP-32 = experiment: In vivo phosphorylation of DARPP-32 at Thr75 in mouse striatum (immunoblot, phosphorylation state-specific antibodies); details: for Thr75-DARPP-32 phosphorylation level (mean): eticlopride 0.5, haloperidol 0.2, clozapine 5 mg/kg i.p., time 0 control = 100
Thr34-DARPP-32 = experiment: In vivo phosphorylation of DARPP-32 at Thr34 in mouse striatum (immunoblot, phosphorylation state-specific antibodies); set-up: species or system mice; details: for Thr34-DARPP-32 phosphorylation level (mean): eticlopride 0.5, haloperidol 0.2, clozapine 5 mg/kg i.p., time 0 control = 100
Protocol: as §1, §2

Thr202- and Tyr204- ERK1 = experiment: In vivo phosphorylation of ERK1 in mouse striatum (immunoblot, phosphorylation state-specific antibodies); details: for Thr202- and Tyr204- ERK1 phosphorylation level (mean): eticlopride 0.5, haloperidol 0.2, clozapine 5 mg/kg i.p., time 0 control = 100; for levels of phospho-ERK1 (in words): haloperidol 0.2 mg/kg, eticlopride 0.5 mg/kg
Thr185- and Tyr187- ERK2 = experiment: In vivo phosphorylation of ERK2 in mouse striatum (immunoblot, phosphorylation state-specific antibodies); set-up: species or system mice; details: for Thr185- and Tyr187- ERK2 phosphorylation level (mean): eticlopride 0.5, haloperidol 0.2, clozapine 5 mg/kg i.p., time 0 control = 100; for levels of phospho-ERK2 (in words): haloperidol 0.2 mg/kg, eticlopride 0.5 mg/kg
Protocol: as §1, §2

c-fos = details: dorsal striatum; cited from earlier work
DOI-induced behaviors = details: rats; 30 min pretreatment i.p.; fixed dose of DOI 3.0 mg/kg; cited from earlier work

Compound: N[C@@H]1C[C@H]1c1ccccc1 (racemic) [tranylcypromine]
- frontal cortex levels of DARPP-32 immunoreactivity (DARPP-32): significant increases

Compound: CN1CCN(C2=Nc3cc(Cl)ccc3Nc3ccccc32)CC1 [Clozapine, clozapine]
- Ser133-CREB phosphorylation level (mean) (Ser133-CREB; 15 min post-injection): 51
- Ser133-CREB phosphorylation level (mean) (Ser133-CREB; 30 min post-injection): 62
- Ser133-CREB phosphorylation level (mean) (Ser133-CREB; 60 min post-injection): 57
- Thr75-DARPP-32 phosphorylation level (mean) (Thr75-DARPP-32; 15 min post-injection): 179
- Thr75-DARPP-32 phosphorylation level (mean) (Thr75-DARPP-32; 30 min post-injection): 216
- Thr75-DARPP-32 phosphorylation level (mean) (Thr75-DARPP-32; 60 min post-injection): 203
- Thr34-DARPP-32 phosphorylation level (mean) (Thr34-DARPP-32; 15 min post-injection): 188
- Thr34-DARPP-32 phosphorylation level (mean) (Thr34-DARPP-32; 30 min post-injection): 209
- Thr34-DARPP-32 phosphorylation level (mean) (Thr34-DARPP-32; 60 min post-injection): 222
- Thr202- and Tyr204- ERK1 phosphorylation level (mean) (Thr202- and Tyr204- ERK1; 15 min post-injection): 90
- Thr202- and Tyr204- ERK1 phosphorylation level (mean) (Thr202- and Tyr204- ERK1; 30 min post-injection): 75
- Thr202- and Tyr204- ERK1 phosphorylation level (mean) (Thr202- and Tyr204- ERK1; 60 min post-injection): 33
- Thr185- and Tyr187- ERK2 phosphorylation level (mean) (Thr185- and Tyr187- ERK2; 15 min post-injection): 62
- Thr185- and Tyr187- ERK2 phosphorylation level (mean) (Thr185- and Tyr187- ERK2; 30 min post-injection): 41
- Thr185- and Tyr187- ERK2 phosphorylation level (mean) (Thr185- and Tyr187- ERK2; 60 min post-injection): 15

Compound: CCc1cc(Cl)c(OC)c(C(=O)NC[C@@H]2CCCN2CC)c1O [Eticlopride, eticlopride]
- time after administration at which phospho-CREB levels returned to control levels (Ser133-CREB): 60 min
- Ser133-CREB phosphorylation level (mean) (Ser133-CREB; 15 min post-injection): 167
- Ser133-CREB phosphorylation level (mean) (Ser133-CREB; 30 min post-injection): 146
- Ser133-CREB phosphorylation level (mean) (Ser133-CREB; 60 min post-injection): 123
- levels of phospho-CREB (in words) (Ser133-CREB): significant increases
- Thr75-DARPP-32 phosphorylation level (mean) (Thr75-DARPP-32; 15 min post-injection): 80
- Thr75-DARPP-32 phosphorylation level (mean) (Thr75-DARPP-32; 30 min post-injection): 70
- Thr75-DARPP-32 phosphorylation level (mean) (Thr75-DARPP-32; 60 min post-injection): 80
- DARPP-32 phosphorylation at Thr75 (in words) (Thr75-DARPP-32; at 30 minutes): decreased
- Thr34-DARPP-32 phosphorylation level (mean) (Thr34-DARPP-32; 15 min post-injection): 192
- Thr34-DARPP-32 phosphorylation level (mean) (Thr34-DARPP-32; 30 min post-injection): 226
- Thr34-DARPP-32 phosphorylation level (mean) (Thr34-DARPP-32; 60 min post-injection): 190
- Thr202- and Tyr204- ERK1 phosphorylation level (mean) (Thr202- and Tyr204- ERK1; 15 min post-injection): 223
- Thr202- and Tyr204- ERK1 phosphorylation level (mean) (Thr202- and Tyr204- ERK1; 30 min post-injection): 207
- Thr202- and Tyr204- ERK1 phosphorylation level (mean) (Thr202- and Tyr204- ERK1; 60 min post-injection): 170
- levels of phospho-ERK1 (in words) (Thr202- and Tyr204- ERK1): significant increases
- time after administration at which phospho-ERK2 levels returned to control levels (Thr185- and Tyr187- ERK2): 30 min
- Thr185- and Tyr187- ERK2 phosphorylation level (mean) (Thr185- and Tyr187- ERK2; 15 min post-injection): 132
- Thr185- and Tyr187- ERK2 phosphorylation level (mean) (Thr185- and Tyr187- ERK2; 30 min post-injection): 97
- Thr185- and Tyr187- ERK2 phosphorylation level (mean) (Thr185- and Tyr187- ERK2; 60 min post-injection): 96
- levels of phospho-ERK2 (in words) (Thr185- and Tyr187- ERK2): significant increases

Compound: O=C(CCCN1CCC(O)(c2ccc(Cl)cc2)CC1)c1ccc(F)cc1 [Haloperidol, haloperidol]
- inducing c-fos expression, as compared to clozapine (c-fos): much more effective
- time after administration at which phospho-CREB levels returned to control levels (Ser133-CREB): 30 min
- Ser133-CREB phosphorylation level (mean) (Ser133-CREB; 15 min post-injection): 148
- Ser133-CREB phosphorylation level (mean) (Ser133-CREB; 30 min post-injection): 131
- Ser133-CREB phosphorylation level (mean) (Ser133-CREB; 60 min post-injection): 114
- levels of phospho-CREB (in words) (Ser133-CREB): significant increases
- DARPP-32 phosphorylation at Thr75 (in words) (Thr75-DARPP-32): without effect
- Thr75-DARPP-32 phosphorylation level (mean) (Thr75-DARPP-32; 15 min post-injection): 133
- Thr75-DARPP-32 phosphorylation level (mean) (Thr75-DARPP-32; 30 min post-injection): 144
- Thr75-DARPP-32 phosphorylation level (mean) (Thr75-DARPP-32; 60 min post-injection): 138
- Thr34-DARPP-32 phosphorylation level (mean) (Thr34-DARPP-32; 15 min post-injection): 195
- Thr34-DARPP-32 phosphorylation level (mean) (Thr34-DARPP-32; 30 min post-injection): 196
- Thr34-DARPP-32 phosphorylation level (mean) (Thr34-DARPP-32; 60 min post-injection): 155
- Thr34 phosphorylation (in words) (Thr34-DARPP-32; at 60 minutes): no statistical difference from controls
- Thr34 phosphorylation (in words) (Thr34-DARPP-32; for up to 30 minutes): increased
- Thr202- and Tyr204- ERK1 phosphorylation level (mean) (Thr202- and Tyr204- ERK1; 15 min post-injection): 231
- Thr202- and Tyr204- ERK1 phosphorylation level (mean) (Thr202- and Tyr204- ERK1; 30 min post-injection): 187
- Thr202- and Tyr204- ERK1 phosphorylation level (mean) (Thr202- and Tyr204- ERK1; 60 min post-injection): 169
- levels of phospho-ERK1 (in words) (Thr202- and Tyr204- ERK1): significant increases
- time after administration at which phospho-ERK2 levels returned to control levels (Thr185- and Tyr187- ERK2): 30 min
- Thr185- and Tyr187- ERK2 phosphorylation level (mean) (Thr185- and Tyr187- ERK2; 15 min post-injection): 151
- Thr185- and Tyr187- ERK2 phosphorylation level (mean) (Thr185- and Tyr187- ERK2; 30 min post-injection): 114
- Thr185- and Tyr187- ERK2 phosphorylation level (mean) (Thr185- and Tyr187- ERK2; 60 min post-injection): 107
- levels of phospho-ERK2 (in words) (Thr185- and Tyr187- ERK2): significant increases
- effect on the three behavioral effects of DOI (head-and-body shakes, forepaw tapping, skin-jerks) (DOI-induced behaviors): antagonize
- frontal cortex levels of DARPP-32 immunoreactivity (DARPP-32): without effects

Compound: COc1cccc([C@H](O)C2CCN(CCc3ccc(F)cc3)CC2)c1OC [M100907]
- effect on the three behavioral effects of DOI (head-and-body shakes, forepaw tapping, skin-jerks) (DOI-induced behaviors): antagonize

Compound: CCNC(=O)N1CCN(CCCC(c2ccc(F)cc2)c2ccc(F)cc2)CC1 [amperozide]
- effect on the three behavioral effects of DOI (head-and-body shakes, forepaw tapping, skin-jerks) (DOI-induced behaviors): antagonize

Compound: COc1cc(C(C)=O)ccc1OCCCN1CCC(c2noc3cc(F)ccc23)CC1 [iloperidone]
- effect on the three behavioral effects of DOI (head-and-body shakes, forepaw tapping, skin-jerks) (DOI-induced behaviors): antagonize

Compound: CN(C)CCCN1c2ccccc2CCc2ccccc21 [imipramine]
- frontal cortex levels of DARPP-32 immunoreactivity (DARPP-32): significant increases

Compound: CN1CC[C@]23c4c5ccc(O)c4O[C@H]2[C@@H](O)C=C[C@H]3[C@H]1C5 [morphine]
- frontal cortex levels of DARPP-32 immunoreactivity (DARPP-32): without effects

Compound: CCN1CCC[C@H]1CNC(=O)c1c(OC)ccc(Br)c1OC [remoxipride]
- effect on the three behavioral effects of DOI (head-and-body shakes, forepaw tapping, skin-jerks) (DOI-induced behaviors): antagonize

Compound: Cc1nc2n(c(=O)c1CCN1CCC(c3noc4cc(F)ccc34)CC1)CCCC2 [risperidone]
- effect on the three behavioral effects of DOI (head-and-body shakes, forepaw tapping, skin-jerks) (DOI-induced behaviors): antagonize

Compound: Cc1nc2sccn2c(=O)c1CCN1CCC(=C(c2ccc(F)cc2)c2ccc(F)cc2)CC1 [ritanserin]
- effect on the three behavioral effects of DOI (head-and-body shakes, forepaw tapping, skin-jerks) (DOI-induced behaviors): antagonize

Compound: N alpha MeArg-Lys-Pro-Trp-Tle-Leu [NT1]
- effect on the three behavioral effects of DOI (head-and-body shakes, forepaw tapping, skin-jerks) (DOI-induced behaviors): antagonize
